From ChEMBL document CHEMBL1255298, “Larger vancomycin doses (at least four grams per day) are associated with an increased incidence of nephrotoxicity” (Antimicrob Agents Chemother, 2008)

What was measured:
Homo sapiens [1] = organism: Homo sapiens; assay: Nephrotoxicity in patient with gram-positive bacterial infection assessed as serum […] level at > 4 g/day measured within 72 hrs; assay type: toxicity, organism-based; settings: in vivo
Homo sapiens [2] = organism: Homo sapiens; assay: Nephrotoxicity in patient with gram-positive bacterial infection assessed as change in serum […] level at > 4 g/day measured within 72 hrs; assay type: toxicity, organism-based; settings: in vivo

## CN[C@H](CC(C)C)C(=O)N[C@H]1C(=O)N[C@@H](CC(N)=O)C(=O)N[C@H]2C(=O)N[C@H]3C(=O)N[C@H](C(=O)N[C@H](C(=O)O)c4cc(O)cc(O)c4-c4cc3ccc4O)[C@H](O)c3ccc(c(Cl)c3)Oc3cc2cc(c3O[C@@H]2O[C@H](CO)[C@@H](O)[C@H](O)[C@H]2O[C@H]2C[C@](C)(N)[C@H](O)[C@H](C)O2)Oc2ccc(cc2Cl)[C@H]1O [VANCOMYCIN]
Homo sapiens [1]
  Activity: 2.1 mg/dL
Homo sapiens [2]
  Activity: 45.6%
